Assay [1] concerns the target Calcium/calmodulin-dependent protein kinase kinase 2 (Homo sapiens, UniProt Q96RR4).
Assay [2] has as its target T1, Lymphokine-activated killer T-cell-originated protein kinase (Homo sapiens) (UniProt Q96KB5).
T1 sequence (whole entry): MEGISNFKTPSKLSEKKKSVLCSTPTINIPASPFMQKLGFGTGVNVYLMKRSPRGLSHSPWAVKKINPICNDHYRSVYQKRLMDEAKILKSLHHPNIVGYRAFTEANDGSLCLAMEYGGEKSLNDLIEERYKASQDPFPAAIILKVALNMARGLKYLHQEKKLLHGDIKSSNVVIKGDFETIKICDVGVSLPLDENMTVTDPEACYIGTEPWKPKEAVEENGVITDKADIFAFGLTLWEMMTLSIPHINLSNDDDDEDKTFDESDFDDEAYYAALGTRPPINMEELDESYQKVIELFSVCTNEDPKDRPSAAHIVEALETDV

Assay [3] deals with Dual specificity protein kinase CLK1 (Homo sapiens) (UniProt P49759).
Dual specificity protein kinase CLK1 (Homo sapiens), sequence (P49759 whole entry, looked up): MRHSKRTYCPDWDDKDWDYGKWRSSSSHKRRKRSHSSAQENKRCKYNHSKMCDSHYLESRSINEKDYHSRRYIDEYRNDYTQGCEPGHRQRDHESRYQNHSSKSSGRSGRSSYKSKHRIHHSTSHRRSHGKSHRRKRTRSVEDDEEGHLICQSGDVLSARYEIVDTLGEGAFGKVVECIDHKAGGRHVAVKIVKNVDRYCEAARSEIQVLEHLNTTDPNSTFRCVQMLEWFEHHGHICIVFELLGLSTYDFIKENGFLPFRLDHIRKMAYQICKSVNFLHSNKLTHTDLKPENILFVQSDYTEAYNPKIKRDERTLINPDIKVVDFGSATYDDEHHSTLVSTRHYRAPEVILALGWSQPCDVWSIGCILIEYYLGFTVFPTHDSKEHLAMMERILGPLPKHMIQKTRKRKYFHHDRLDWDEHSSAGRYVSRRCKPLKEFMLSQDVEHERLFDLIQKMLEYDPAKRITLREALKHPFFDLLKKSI
Assay [4] deals with Serine/threonine-protein kinase PAK 4 (Homo sapiens) (UniProt O96013).
Assay [5] addresses Serine/threonine-protein kinase 26 (Homo sapiens) (UniProt Q9P289).
Assay [6] concerns the target Serine/threonine-protein kinase 10 (Homo sapiens) (UniProt O94804).
Assay [7] deals with Calcium/calmodulin-dependent protein kinase type II subunit beta (Homo sapiens) (UniProt Q13554).
Calcium/calmodulin-dependent protein kinase type II subunit beta (Homo sapiens), sequence (Q13554 whole entry): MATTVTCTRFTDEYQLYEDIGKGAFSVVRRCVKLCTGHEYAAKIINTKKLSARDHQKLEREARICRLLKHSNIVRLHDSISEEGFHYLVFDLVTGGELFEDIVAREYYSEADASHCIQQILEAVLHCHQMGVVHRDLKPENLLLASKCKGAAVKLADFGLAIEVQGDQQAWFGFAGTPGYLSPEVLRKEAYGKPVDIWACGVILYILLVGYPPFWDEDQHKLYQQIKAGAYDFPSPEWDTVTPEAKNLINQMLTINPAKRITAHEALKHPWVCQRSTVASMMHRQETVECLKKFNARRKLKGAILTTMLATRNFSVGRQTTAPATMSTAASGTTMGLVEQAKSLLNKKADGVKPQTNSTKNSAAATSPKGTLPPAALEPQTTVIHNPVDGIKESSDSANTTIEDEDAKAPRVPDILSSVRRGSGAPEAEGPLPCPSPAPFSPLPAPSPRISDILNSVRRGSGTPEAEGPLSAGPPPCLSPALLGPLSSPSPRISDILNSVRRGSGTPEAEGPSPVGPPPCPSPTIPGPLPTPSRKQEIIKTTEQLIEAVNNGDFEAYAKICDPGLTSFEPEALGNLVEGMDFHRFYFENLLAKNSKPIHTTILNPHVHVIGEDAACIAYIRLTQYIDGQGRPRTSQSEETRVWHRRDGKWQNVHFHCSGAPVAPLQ
Assay [8] deals with T2, Serine/threonine-protein kinase 17A (Homo sapiens) (UniProt Q9UEE5).
T2 sequence (whole entry): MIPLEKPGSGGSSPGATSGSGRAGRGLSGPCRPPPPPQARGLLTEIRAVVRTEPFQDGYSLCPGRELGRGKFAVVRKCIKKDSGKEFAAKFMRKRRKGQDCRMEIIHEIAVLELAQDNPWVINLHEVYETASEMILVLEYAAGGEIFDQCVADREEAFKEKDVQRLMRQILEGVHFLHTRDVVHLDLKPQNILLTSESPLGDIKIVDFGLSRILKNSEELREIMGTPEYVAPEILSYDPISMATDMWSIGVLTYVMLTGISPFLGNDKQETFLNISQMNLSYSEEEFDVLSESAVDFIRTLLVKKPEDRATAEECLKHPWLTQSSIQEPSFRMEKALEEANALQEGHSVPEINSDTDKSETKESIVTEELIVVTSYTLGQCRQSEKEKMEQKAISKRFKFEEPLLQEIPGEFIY

Assay [9] deals with Cyclin-dependent kinase 6 (Homo sapiens) (UniProt Q00534).
Cyclin-dependent kinase 6 (Homo sapiens), sequence (Q00534 whole entry): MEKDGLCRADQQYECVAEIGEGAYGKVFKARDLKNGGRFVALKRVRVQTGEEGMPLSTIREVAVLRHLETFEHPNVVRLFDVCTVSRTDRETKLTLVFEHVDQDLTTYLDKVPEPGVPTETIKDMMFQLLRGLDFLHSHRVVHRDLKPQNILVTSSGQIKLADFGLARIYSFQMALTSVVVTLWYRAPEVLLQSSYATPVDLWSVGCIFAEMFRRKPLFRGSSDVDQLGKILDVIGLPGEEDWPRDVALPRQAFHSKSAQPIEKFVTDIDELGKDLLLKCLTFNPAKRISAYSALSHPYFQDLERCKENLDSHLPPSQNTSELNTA
Assay [10] concerns the target TRAF2 and NCK-interacting protein kinase (Homo sapiens) (UniProt Q9UKE5).
Assay [11] concerns the target Calcium/calmodulin-dependent protein kinase type II subunit delta (Homo sapiens) (UniProt Q13557).
Assay [12] addresses Ribosomal protein S6 kinase alpha-3 (Homo sapiens) (UniProt P51812).
The target in assay [13] is T3, Serine/threonine-protein kinase VRK1 (Homo sapiens) (UniProt Q99986).
T3 sequence (whole entry): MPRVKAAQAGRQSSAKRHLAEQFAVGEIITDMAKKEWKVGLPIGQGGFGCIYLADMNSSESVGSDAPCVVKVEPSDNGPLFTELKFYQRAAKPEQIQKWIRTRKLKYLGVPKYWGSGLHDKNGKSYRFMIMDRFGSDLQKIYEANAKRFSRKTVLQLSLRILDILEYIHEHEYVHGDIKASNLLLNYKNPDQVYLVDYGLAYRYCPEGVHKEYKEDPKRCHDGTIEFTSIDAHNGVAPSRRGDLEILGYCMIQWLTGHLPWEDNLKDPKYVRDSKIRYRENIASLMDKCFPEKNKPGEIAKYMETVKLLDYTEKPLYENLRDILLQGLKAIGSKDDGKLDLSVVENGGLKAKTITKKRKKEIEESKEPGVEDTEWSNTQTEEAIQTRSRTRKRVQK

For assay [14], the target named is Glycogen synthase kinase-3 beta (Homo sapiens, UniProt P49841).
Glycogen synthase kinase-3 beta, sequence (P49841 whole entry, looked up): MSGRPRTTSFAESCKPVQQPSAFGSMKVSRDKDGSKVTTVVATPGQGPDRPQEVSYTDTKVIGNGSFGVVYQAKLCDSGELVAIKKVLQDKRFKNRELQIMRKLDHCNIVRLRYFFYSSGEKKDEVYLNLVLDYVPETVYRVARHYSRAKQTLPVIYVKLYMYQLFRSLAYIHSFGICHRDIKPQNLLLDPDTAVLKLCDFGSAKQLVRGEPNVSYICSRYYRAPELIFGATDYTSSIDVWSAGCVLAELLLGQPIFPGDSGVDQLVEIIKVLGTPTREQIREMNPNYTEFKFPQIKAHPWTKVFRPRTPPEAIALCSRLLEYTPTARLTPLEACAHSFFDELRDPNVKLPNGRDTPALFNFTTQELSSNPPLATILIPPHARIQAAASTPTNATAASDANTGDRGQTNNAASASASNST
Assay [15] deals with T4, Myotonin-protein kinase (Homo sapiens) (UniProt Q09013).
T4 sequence (whole entry): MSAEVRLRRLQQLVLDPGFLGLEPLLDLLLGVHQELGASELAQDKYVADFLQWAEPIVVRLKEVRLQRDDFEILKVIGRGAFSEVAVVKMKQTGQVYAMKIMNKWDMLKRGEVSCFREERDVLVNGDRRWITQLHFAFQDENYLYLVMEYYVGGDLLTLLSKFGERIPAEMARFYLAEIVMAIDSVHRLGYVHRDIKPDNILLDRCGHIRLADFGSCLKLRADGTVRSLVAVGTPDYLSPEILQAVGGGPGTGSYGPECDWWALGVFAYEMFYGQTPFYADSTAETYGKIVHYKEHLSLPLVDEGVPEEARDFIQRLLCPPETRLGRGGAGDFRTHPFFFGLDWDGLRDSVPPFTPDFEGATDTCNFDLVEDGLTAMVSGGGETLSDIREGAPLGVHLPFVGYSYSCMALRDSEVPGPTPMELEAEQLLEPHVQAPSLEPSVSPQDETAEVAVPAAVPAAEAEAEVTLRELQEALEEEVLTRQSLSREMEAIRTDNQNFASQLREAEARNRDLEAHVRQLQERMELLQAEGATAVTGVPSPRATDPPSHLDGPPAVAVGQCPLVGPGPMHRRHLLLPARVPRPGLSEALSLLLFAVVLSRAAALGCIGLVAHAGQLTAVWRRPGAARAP

TRAF2 and NCK-interacting protein kinase (Homo sapiens), sequence (Q9UKE5 whole entry, looked up): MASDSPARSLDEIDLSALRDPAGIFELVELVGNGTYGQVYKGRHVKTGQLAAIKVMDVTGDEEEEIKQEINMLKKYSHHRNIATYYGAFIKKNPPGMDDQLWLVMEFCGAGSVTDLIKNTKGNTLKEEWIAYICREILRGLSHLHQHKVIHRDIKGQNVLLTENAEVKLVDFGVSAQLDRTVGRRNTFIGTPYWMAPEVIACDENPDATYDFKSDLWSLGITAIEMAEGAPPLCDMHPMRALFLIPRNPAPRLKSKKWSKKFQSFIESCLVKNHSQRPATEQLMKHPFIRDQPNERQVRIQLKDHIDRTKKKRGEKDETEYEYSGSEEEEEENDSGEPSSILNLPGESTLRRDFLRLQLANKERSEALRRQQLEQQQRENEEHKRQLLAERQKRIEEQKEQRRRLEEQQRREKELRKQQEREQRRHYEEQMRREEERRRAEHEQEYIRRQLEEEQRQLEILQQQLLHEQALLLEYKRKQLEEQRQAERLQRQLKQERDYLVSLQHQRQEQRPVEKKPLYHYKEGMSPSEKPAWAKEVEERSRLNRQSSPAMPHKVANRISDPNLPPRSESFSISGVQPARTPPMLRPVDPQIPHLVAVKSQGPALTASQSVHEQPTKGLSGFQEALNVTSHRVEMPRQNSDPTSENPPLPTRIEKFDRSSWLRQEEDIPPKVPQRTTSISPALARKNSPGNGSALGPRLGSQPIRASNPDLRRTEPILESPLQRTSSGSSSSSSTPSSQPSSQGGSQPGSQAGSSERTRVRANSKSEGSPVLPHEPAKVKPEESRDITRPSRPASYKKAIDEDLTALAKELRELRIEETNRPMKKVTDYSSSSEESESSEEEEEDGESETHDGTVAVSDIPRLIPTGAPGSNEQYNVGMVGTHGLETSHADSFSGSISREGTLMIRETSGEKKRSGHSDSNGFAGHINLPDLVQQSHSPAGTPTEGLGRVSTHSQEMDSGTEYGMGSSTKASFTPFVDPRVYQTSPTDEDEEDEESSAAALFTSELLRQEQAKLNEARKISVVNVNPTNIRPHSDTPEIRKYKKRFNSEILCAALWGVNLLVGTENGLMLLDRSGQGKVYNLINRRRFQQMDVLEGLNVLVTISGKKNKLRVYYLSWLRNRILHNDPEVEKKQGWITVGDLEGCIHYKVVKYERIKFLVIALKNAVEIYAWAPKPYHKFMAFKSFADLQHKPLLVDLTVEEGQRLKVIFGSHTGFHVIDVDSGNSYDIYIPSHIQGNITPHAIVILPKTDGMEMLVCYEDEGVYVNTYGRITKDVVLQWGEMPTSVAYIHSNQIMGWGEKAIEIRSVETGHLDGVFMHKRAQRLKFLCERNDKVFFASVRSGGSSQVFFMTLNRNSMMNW
Calcium/calmodulin-dependent protein kinase type II subunit delta (Homo sapiens), sequence (Q13557 whole entry): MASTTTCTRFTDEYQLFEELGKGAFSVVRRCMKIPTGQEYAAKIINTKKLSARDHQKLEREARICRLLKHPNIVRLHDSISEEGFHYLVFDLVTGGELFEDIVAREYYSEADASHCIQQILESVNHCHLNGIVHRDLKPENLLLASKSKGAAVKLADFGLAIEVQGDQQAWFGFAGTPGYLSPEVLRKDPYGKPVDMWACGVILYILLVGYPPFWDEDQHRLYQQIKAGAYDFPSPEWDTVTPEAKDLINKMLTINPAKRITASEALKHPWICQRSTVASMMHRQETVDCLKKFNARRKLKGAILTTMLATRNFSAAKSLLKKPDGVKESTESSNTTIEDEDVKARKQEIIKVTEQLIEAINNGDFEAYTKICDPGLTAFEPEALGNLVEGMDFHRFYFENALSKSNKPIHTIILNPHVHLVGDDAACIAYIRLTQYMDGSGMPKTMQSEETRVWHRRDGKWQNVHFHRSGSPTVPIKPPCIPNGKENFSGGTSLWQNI
Serine/threonine-protein kinase 10 (Homo sapiens), sequence (O94804 whole entry, looked up): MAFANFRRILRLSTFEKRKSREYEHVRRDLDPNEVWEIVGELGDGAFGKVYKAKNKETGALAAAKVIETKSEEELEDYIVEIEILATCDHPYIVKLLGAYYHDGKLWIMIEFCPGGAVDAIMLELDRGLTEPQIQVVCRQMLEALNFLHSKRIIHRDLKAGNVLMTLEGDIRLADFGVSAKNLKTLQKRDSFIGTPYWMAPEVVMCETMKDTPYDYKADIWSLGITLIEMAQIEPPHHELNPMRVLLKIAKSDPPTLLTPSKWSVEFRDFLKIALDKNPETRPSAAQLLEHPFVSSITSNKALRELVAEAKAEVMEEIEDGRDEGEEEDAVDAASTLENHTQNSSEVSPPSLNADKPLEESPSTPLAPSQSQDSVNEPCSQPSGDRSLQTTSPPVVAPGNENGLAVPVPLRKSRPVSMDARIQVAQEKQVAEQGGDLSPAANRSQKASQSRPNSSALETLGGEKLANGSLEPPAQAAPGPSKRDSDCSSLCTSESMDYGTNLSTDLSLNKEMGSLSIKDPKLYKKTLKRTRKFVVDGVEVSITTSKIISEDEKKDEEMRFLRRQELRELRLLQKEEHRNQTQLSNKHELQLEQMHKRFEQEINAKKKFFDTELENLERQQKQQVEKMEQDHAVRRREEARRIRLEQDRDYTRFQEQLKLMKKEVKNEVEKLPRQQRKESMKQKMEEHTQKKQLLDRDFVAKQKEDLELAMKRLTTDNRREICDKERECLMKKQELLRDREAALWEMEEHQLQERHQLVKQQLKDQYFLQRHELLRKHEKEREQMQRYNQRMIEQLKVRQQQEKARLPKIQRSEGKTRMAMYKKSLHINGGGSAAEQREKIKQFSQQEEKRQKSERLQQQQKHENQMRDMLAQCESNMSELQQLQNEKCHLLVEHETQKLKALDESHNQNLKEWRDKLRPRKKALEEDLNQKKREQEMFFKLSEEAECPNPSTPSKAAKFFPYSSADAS

In general, ΔTm refers to the shift of the melting midpoint relative to a reference. For `NC(=O)c1ccc(-c2nc(-c3ccc4c(c3)OCCO4)c(-c3ccccn3)[nH]2)cc1`, the ΔTm in assay [1] was -1.1 °C; in [2] it was -1.4 °C; in [3] it was -0.4 °C; in assay [4], 0.9 °C; in assay [5], -0.2 °C; in assay [6], 0.4 °C. The thermal shift (ΔTm) in assay [7] was 1 °C; in [8], -0.3 °C; in assay [9] it was 0.4 °C; in [10], -0.6 °C; in [11], 0.3 °C; in assay [12], -0.1 °C. For the same compound, the thermal shift (ΔTm) in assay [13] stood at 0.7 °C; in assay [14] it was 0.6 °C; in [15], 0.8 °C.
Take `COc1cc2ncnc(Nc3cccc(Br)c3)c2cc1OC`: the shift in melting temperature (ΔTm) in assay [1] turned out to be 1.4 °C; in assay [2], 0.3 °C; in assay [3], 1.7 °C; in assay [4], 0.2 °C; in assay [5], 0.6 °C; in assay [6], 7.4 °C. Also, the thermal shift (ΔTm) in assay [7] is 0 °C; in [8], 3.3 °C; in assay [9], 0.2 °C; in [10], 2 °C; in [11], -0.5 °C; in assay [12], 1.5 °C. Moreover, the ΔTm in [13] turned out to be 0.7 °C; in [14], 1.5 °C; in [15] it was 0.3 °C.
On to `Nc1nc(Nc2ccc(S(N)(=O)=O)cc2)nn1C(=S)Nc1c(F)cccc1F`, for which the shift in melting temperature (ΔTm) in assay [1] is 8.6 °C; in assay [2], -0.2 °C; in assay [3], 11.5 °C; in assay [4], 6.3 °C; in [5] it was 8.3 °C; in [6] it was 15.5 °C. Further, the thermal shift (ΔTm) was determined as 1.6 °C in assay [7]; 12.6 °C in assay [8]; 4.6 °C in [9]; 9.9 °C in assay [10]; 0.7 °C in [11]; 9.6 °C in assay [12]. Moreover, the ΔTm turned out to be 1.9 °C in [13], 8 °C in assay [14] and 7 °C in assay [15].
On to `O=C(O)c1cc(NCc2cc(O)ccc2O)ccc1O`, for which the thermal shift (ΔTm) in assay [1] was 0.8 °C; in assay [2], 0 °C; in [3] it was 0.1 °C; in assay [4] it was 0 °C; in assay [5], -0.1 °C; in assay [6], -0.3 °C. Besides, the ΔTm in assay [7] was 0 °C; in [8], 0.1 °C; in [9], -0.3 °C; in assay [10] it was 0 °C; in assay [11], -0.2 °C; in assay [12], -1 °C. Moreover, the shift in melting temperature (ΔTm) is -0.2 °C in assay [13], -0.4 °C in [14] and 0.3 °C in assay [15].
As for `O=c1c(-c2ccc(O)cc2)coc2cc(O)cc(O)c12`, the thermal shift (ΔTm) in [1] worked out at 1.3 °C; in assay [2] it was 0.7 °C; in assay [3], 1.1 °C; in assay [4], 0.8 °C; in [5], 0.8 °C; in [6], 0 °C. The ΔTm in assay [7] came out at 1.2 °C; in assay [8], 0.6 °C; in [9] it was 0.1 °C; in [10], 0.4 °C; in assay [11] it was 1.9 °C; in [12], 0.2 °C. The ΔTm came out at 0.6 °C in assay [13], 1.1 °C in [14] and 2.4 °C in assay [15].
Turning to `COC1=C2C[C@@H](C)C[C@H](OC)[C@H](O)[C@@H](C)/C=C(\C)[C@H](OC(N)=O)[C@@H](OC)/C=C\C=C(/C)C(=O)NC(=CC1=O)C2=O`, the thermal shift (ΔTm) in [1] was -0.6 °C; in assay [2], 0.6 °C; in assay [3], 0.6 °C; in [4], -0.2 °C; in [5], -0.3 °C; in assay [6], 0.5 °C. Moreover, the thermal shift (ΔTm) in [7] is -0.1 °C; in [8], 0.3 °C; in assay [9], 0.1 °C; in assay [10], -0.4 °C; in assay [11], -0.5 °C; in assay [12], 0.2 °C. Further, the ΔTm in assay [13] is -0.1 °C; in assay [14], 0.5 °C; in [15] it was -0.3 °C.

The values above are taken from ChEMBL document CHEMBL1145498, “A systematic interaction map of validated kinase inhibitors with Ser/Thr kinases” (Proc Natl Acad Sci U S A, 2007).
